# Where two headings read alike, the source gives them in different places.
# Experiments:
# [1] = test system: TLR2 induced IL-6 in peripheral blood mononuclear cells (PBMCs); test: PBMC TLR2 Induced IL-6 Assay; type: cell-based, human; settings: IL-6 by ELISA; for IC50: read-out: Cell IC50; for EC50: read-out: Cell EC50
# Procedure, shortened: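 Lipoteichoic acid at 10 µg/ml served as TLR2 stimulus for 5 hours, following a 30-minute compound pretreatment at 37° C. Cells were Ficoll-isolated human PBMCs, 250000 cells/well, cultured in RPMI plus 10% heat-inactivated FCS.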
# IRAK4 = IRAK4 (Homo sapiens (Human), UniProt Q9NWZ3); test: IRAK4 Inhibition Assay; type: biochemical; settings: ATP 500 μM, read-out: IRAK4 IC50
# Procedure, shortened: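 Mobility-shift readout: fluorescent substrate and phosphoproduct resolved electrophoretically on Caliper LabChip 3000 after EDTA quench (35 mM). Enzyme reaction of IRAK4, substrates and test compound ran 60 min at room temperature.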
# [2] = Homo sapiens, PBMC, PBMC TLR2 Induced IL-6 Assay, lipoteichoic acid stimulation
# [3] = human PBMCs, lipoteichoic acid stimulated
# [4] = Homo sapiens, PBMC, human PBMCs, lipoteichoic acid stimulated
# Sequence of IRAK4 (Q9NWZ3 whole entry, species assumed): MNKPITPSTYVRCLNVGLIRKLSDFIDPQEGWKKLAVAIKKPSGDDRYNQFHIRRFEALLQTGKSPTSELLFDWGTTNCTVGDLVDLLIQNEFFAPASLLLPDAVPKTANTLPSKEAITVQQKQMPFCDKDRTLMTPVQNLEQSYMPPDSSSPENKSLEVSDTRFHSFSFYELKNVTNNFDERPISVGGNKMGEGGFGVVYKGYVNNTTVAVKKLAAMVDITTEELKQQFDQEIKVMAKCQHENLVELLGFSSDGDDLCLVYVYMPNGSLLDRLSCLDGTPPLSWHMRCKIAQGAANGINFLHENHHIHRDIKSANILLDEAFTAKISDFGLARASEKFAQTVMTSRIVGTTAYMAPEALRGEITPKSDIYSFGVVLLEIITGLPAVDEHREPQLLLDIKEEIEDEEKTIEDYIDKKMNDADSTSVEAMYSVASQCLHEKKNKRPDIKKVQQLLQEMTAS
IC50 (IRAK4; IRAK4 Inhibition Assay),IC50 (IRAK4; IRAK4 0.6 nM),Structure (SMILES),"EC50 [1, 2]",also measured
–,2.3 nM,"CC(C)(O)[C@H](F)CNC(=O)c1cnc(-n2ncc3cc(C#N)cnc32)cc1NC1CCC(F)(F)C1 (single isomer, unassigned) [Example 615]",–,"IC50 [1, 3]: 190 nM"
–,3 nM,CC(C)Nc1cc(-n2ccc3cc(C#N)cnc32)ncc1C(=O)NCC(F)C1(O)COC1 (stereo not shown) [Example 494],–,"IC50 [1, 4]: 289 nM"
–,4.9 nM,Cn1cc(Nc2cc(-n3ncc4cc(Cl)cnc43)ncc2C(=O)NC[C@@H](F)C(C)(C)O)cn1 [Example 398],–,"IC50 [1, 4]: 277 nM"
–,1.9 nM,CC(C)(O)[C@H](F)CNC(=O)c1cnc(-n2ccc3cc(C#N)cnc32)cc1Nc1ccc2ncoc2c1 [Example 421],–,"IC50 [1, 4]: 167 nM"
–,18.2 nM,"CC(C)C(O)CNc1cc(-n2ncc3cc(Cl)cnc32)ncc1C(=O)NC[C@@H](F)C(C)(C)O (single isomer, unassigned) [Example 596]",–,"IC50 [1, 3]: 578 nM"
–,4.8 nM,CC(C)(O)/C=C/Nc1cc(-n2ccc3cc(C#N)cnc32)ncc1C(=O)NC[C@@H](F)C(C)(C)O [Example 419],–,"EC50 [1, 4]: 107 nM"
–,17.4 nM,CC(C)(O)[C@H](F)CNC(=O)c1cnc(-n2ccc3cc(C#N)cnc32)cc1NCC1CCOCC1 [Example 482],–,"EC50 [1, 4]: 433 nM"
–,4.4 nM,CC(C)Nc1cc(-n2ccc3cc(C#N)cnc32)ncc1C(=O)N[C@H]1CC[C@@](F)(c2nccn2C)CC1 [Example 420],–,"EC50 [1, 4]: 186 nM"
–,3.1 nM,CC(C)(O)[C@H](F)CNC(=O)c1cnc(-n2ccc3cc(C#N)cnc32)cc1NC1CCN(c2ccccc2)CC1 [Example 464],–,"EC50 [1, 4]: 257 nM"
–,2.9 nM,CC(=O)N1CC[C@@H](Nc2cc(-n3ccc4cc(C#N)cnc43)ncc2C(=O)NC[C@@H](F)C(C)(C)O)C1 [Example 469],–,"EC50 [1, 4]: 84 nM; IC50 [1, 4]: 207 nM"
–,2.4 nM,CCOC(C)(C)[C@H](F)CNC(=O)c1cnc(-n2ccc3cc(C#N)cnc32)cc1NC(C)C [Example 448],–,"EC50 [1, 4]: 175 nM"
–,9.7 nM,CC(C)(O)[C@H](F)CNC(=O)c1cnc(-n2ncc3cc(C#N)cnc32)cc1NCCNS(C)(=O)=O [Example 586],–,"IC50 [1, 4]: 259 nM"
–,3.3 nM,CNC(=O)[C@H]1CC[C@H](NC(=O)c2cnc(-n3ncc4cc(C#N)c(N)nc43)cc2N[C@@H]2CCCC[C@H]2F)CC1 [Example 629],–,"IC50 [1, 4]: 135 nM"
–,1.8 nM,CC(C)(O)[C@H](F)CNC(=O)c1cnc(-n2ncc3cc(C#N)cnc32)cc1NC12CC(C1)C2 [Example 635],–,"IC50 [1, 4]: 375 nM"
–,1.6 nM,CC(C)(O)[C@H](F)CNC(=O)c1cnc(-n2ccc3cc(C#N)cnc32)cc1N[C@H]1C[C@H](C(C)(C)O)C1 [Example 509],–,"IC50 [1, 4]: 128 nM"
–,5.1 nM,CC(C)CCNC(=O)c1cnc(-n2ncc3cc(C#N)cnc32)cc1NC1COC1 [Example 557],–,"IC50 [1, 4]: 475 nM"
–,2.6 nM,CC(C)(O)[C@H](F)CNC(=O)c1cnc(-n2ncc3cc(C#N)cnc32)cc1Nc1cccc(C#N)c1 [Example 522],–,"EC50 [1, 4]: 177 nM"
3.5 nM,–,CC(C)n1cc(Nc2cc(-n3ncc4cc(Cl)cnc43)ncc2C(=O)NC[C@@H](F)C(C)(C)O)cn1 [Example 358],–,"IC50 [1, 2]: 257 nM"
–,8.1 nM,COc1cnc(N2CC[C@@H](Nc3cc(-n4ncc5cc(C#N)cnc54)ncc3C(=O)NC[C@@H](F)C(C)(C)O)C2)nc1 [Example 536],–,"EC50 [1, 4]: 189 nM"
–,10.3 nM,CC(C)(C)OC(=O)N1CC(Nc2cc(-n3ccc4cc(C#N)cnc43)ncc2C(=O)NC[C@@H](F)C(C)(C)O)C1 [Example 457],–,"EC50 [1, 4]: 458 nM; IC50 [1, 4]: 1240 nM"
–,2.3 nM,CC(O)CCNc1cc(-n2ccc3cc(C#N)cnc32)ncc1C(=O)NC[C@@H](F)C(C)(C)O (stereo partly shown) [Example 422],–,"EC50 [1, 3]: 4 nM"
–,4.3 nM,CC(C)(O)[C@H](F)CNC(=O)c1cnc(-n2ncc3cc(C#N)cnc32)cc1NC1CC(F)(F)C1 [Example 644],–,"IC50 [1, 4]: 89 nM"

# The remaining lines, values behind:
Structure (SMILES),IC50 (IRAK4; IRAK4 Inhibition Assay),IC50 (IRAK4; IRAK4 0.6 nM),"EC50 [1, 2]",also measured
"CC(C)(O)[C@H](F)CNC(=O)c1cnc(-n2ncc3cc(C#N)cnc32)cc1Nc1cnn(CC(F)F)c1 [Example 347, (R)-6-(5-Cyano-1H-pyrazolo[3,4-b]pyridin-1-yl)-4-((1-(2,2-difluoroethyl)-1H-pyrazol-4-yl)amino)-N-(2-fluoro-3-hydroxy-3-methylbutyl)nicotinamide]",1.3 nM,–,–,"IC50 [1, 2]: 146 nM"
CC(C)Nc1cc(-n2ncc3cc(C#N)cnc32)ncc1C(=O)Nc1ccc(OCCN(C)C)cn1 [Example 225],9.2 nM,–,98 nM,–
Cc1cnc2c(cnn2-c2cc(NC(C)C)c(C(=O)N[C@H]3CC[C@H](C(C)(C)O)CC3)cn2)c1 [Example 214],13.6 nM,–,209 nM,–
CC(C)Nc1cc(-n2ncc3cc(C#N)cnc32)ncc1C(=O)Nc1ccc(N2CCNCC2)nc1 [Example 227],5.3 nM,–,55 nM,–
"CNC(=O)[C@H]1CC[C@H](NC(=O)c2cnc(-n3ccc4cc(C#N)cnc43)cc2N[C@@H](C)CO)CC1 [Example 89, 6-(5-cyano-1H-pyrrolo[2,3-b]pyridin-1-yl)-4-(((S)-1-hydroxypropan-2-yl)amino)-N-((1r,4S)-4-(methylcarbamoyl)cyclohexyl)nicotinamide]",3.3 nM,–,90 nM,–
CC(C)(O)[C@H](F)CNC(=O)c1cnc(-n2ncc3cc(C#N)cnc32)cc1Nc1cnn(CC(F)(F)F)c1 [Example 353],1.7 nM,–,–,"IC50 [1, 2]: 18 nM"
"CCNC(=O)[C@H]1CC[C@H](NC(=O)c2cnc(-n3ccc4cc(C#N)cnc43)cc2NC(C)C)CC1 [Example 92, 6-(5-cyano-1H-pyrrolo[2,3-b]pyridin-1-yl)-N-((trans)-4-(ethylcarbamoyl)cyclohexyl)-4-(isopropylamino)nicotinamide]",1.7 nM,–,79 nM,–
"Cn1nnnc1-c1ccc(Nc2cc(-n3ccc4cc(C#N)cnc43)ncc2C(=O)NC[C@@H](F)C(C)(C)O)cc1 [Example 69, (R)-6-(5-cyano-1H-pyrrolo[2,3-b]pyridin-1-yl)-N-(2-fluoro-3-hydroxy-3-methylbutyl)-4-((4-(1-methyl-1H-tetrazol-5-yl)phenyl)amino)nicotinamide]",1.3 nM,–,50 nM,–
CC(C)(O)[C@H](F)CNC(=O)c1cnc(-n2ncc3cc(Cl)cnc32)cc1Nc1cnn(C2CCOCC2)c1 [Example 352],6.5 nM,–,–,"IC50 [1, 2]: 170 nM"
"CC(C)(O)[C@H](F)CNC(=O)c1cnc(-n2ccc3cc(C#N)cnc32)cc1NCC1(O)CCC1 [Example 28, (R)-6-(5-cyano-1H-pyrrolo[2,3-b]pyridin-1-yl)-N-(2-fluoro-3-hydroxy-3-methylbutyl)-4-(((1-hydroxycyclobutyl)methyl)amino)nicotinamide]",2.8 nM,–,80 nM,–
"CC1(CNc2cc(-n3ccc4cc(C#N)cnc43)ncc2C(=O)NC[C@@H](F)C(C)(C)O)COC1 [Example 20, (R)-6-(5-cyano-1H-pyrrolo[2,3-b]pyridin-1-yl)-N-(2-fluoro-3-hydroxy-3-methylbutyl)-4-(((3-methyloxetan-3-yl)methyl)amino)nicotinamide]",5.7 nM,–,497 nM,–
"CC(=O)Nc1cccc(Nc2cc(-n3ccc4cc(C#N)cnc43)ncc2C(=O)NC[C@@H](F)C(C)(C)O)c1 [Example 54, (R)-4-((3-acetamidophenyl)amino)-6-(5-cyano-1H-pyrrolo[2,3-b]pyridin-1-yl)-N-(2-fluoro-3-hydroxy-3-methylbutyl) nicotinamide]",1.8 nM,–,254 nM,–
"CC(C)Nc1cc(-n2ncc3cc(Cl)cnc32)ncc1C(=O)NCCN1CCOCC1 [Example 154, 6-(5-chloro-1H-pyrazolo[3,4-b]pyridin-1-yl)-4-(isopropylamino)-N-(2-morpholinoethyl)nicotinamide]",12 nM,–,584 nM,–
"CC(C)(O)CCNC(=O)c1cnc(-n2ccc3cc(Cl)cnc32)cc1NC1CCOCC1 [Example 36, 6-(5-chloro-1H-pyrrolo[2,3-b]pyridin-1-yl)-N-(3-hydroxy-3-methylbutyl)-4-((tetrahydro-2H-pyran-4-yl)amino)nicotinamide]",3.1 nM,–,133 nM,–
"CC(F)[C@H](C)Nc1cc(-n2ncc3cc(C#N)cnc32)ncc1C(=O)NC[C@@H](F)C(C)(C)O (single isomer, unassigned) [Example 202]",10.6 nM,–,131 nM,–
"CC(C)Nc1cc(-n2ccc3cc(C#N)cnc32)ncc1C(=O)NC12CCC(O)(CC1)C2 [Example 14, 6-(5-cyano-1H-pyrrolo[2,3-b]pyridin-1-yl)-N-(4-hydroxybicyclo[2.2.1]heptan-1-yl)-4-(isopropylamino)nicotinamide]",14.8 nM,–,286 nM,–
"CC(C)Nc1cc(-n2ccc3cc(C#N)cnc32)ncc1C(=O)N[C@H]1CC[C@H](C(=O)NC(C)C)CC1 [Example 90, 6-(5-cyano-1H-pyrrolo[2,3-b]pyridin-1-yl)-4-(isopropylamino)-N-((trans)-4-(isopropylcarbamoyl)cyclohexyl) nicotinamide]",1.9 nM,–,41 nM,–
"C[C@@H](CF)Nc1cc(-n2ccc3cc(C#N)cnc32)ncc1C(=O)NCCC(C)(C)O [Example 119, (S)-6-(5-cyano-1H-pyrrolo[2,3-b]pyridin-1-yl)-4-((1-fluoropropan-2-yl)amino)-N-(3-hydroxy-3-methylbutyl)nicotinamide]",4.4 nM,–,91 nM,–
